Values of other authors as cited in patent publication EP4568488B1, “VEGETABLE- AND/OR FRUIT-CONTAINING SNACK FOOD PRODUCTS AND MANUFACTURE THEREOF” (PepsiCo International Limited, priority 2022, dated 2024).
Where two headings read alike, the source gives them in different places.

CC1=C(/C=C/C(C)=C/C=C/C(C)=C/C=C/C=C(C)/C=C/C=C(C)/C=C/C2=C(C)CCCC2(C)C)C(C)(C)CCC1 [β-carotene]
half-life time of β-carotene (convective hot-air drying of carrot slices at 45°C): 3.02 ± 0.04 h | half-life time of β-carotene (convective hot-air drying of carrot slices at 65°C): 1.43 ± 0.03 h
